Assay results published in the NIST ThermoML archive (doi:10.1021/acs.jced.8b00554).
Several values for one entry are separate records, joined by “and”; a condition that tells them apart may be missing. Equal entries are not always repeated.

Experiment: xn = mol fraction of the nth substance listed
Conditions: Liquid, Vibrating tube method

CCCCCCCCC [nonane] + CCCO
mass density
Conditions | 313.15 K | 323.15 K
100 kPa, x2 = 0.1231 | – | 696.08 kg/m3
100 kPa, x2 = 0.2315 | – | 700.11 kg/m3
100 kPa, x2 = 0.3229 | – | 704.16 kg/m3
100 kPa, x2 = 0.4272 | – | 709.94 kg/m3
100 kPa, x2 = 0.7021 | 741.23 kg/m3 | 732.13 kg/m3
100 kPa, x2 = 0.8941 | 766.16 kg/m3 | 757.59 kg/m3
1000 kPa, x2 = 0.7021 | 742.27 kg/m3 | 732.62 kg/m3
1010 kPa, x2 = 0.1231 | – | 696.28 kg/m3
1010 kPa, x2 = 0.2315 | – | 700.63 kg/m3
1010 kPa, x2 = 0.3229 | – | 704.67 kg/m3
1010 kPa, x2 = 0.4272 | – | 710.4 kg/m3
1010 kPa, x2 = 0.8941 | – | 758.12 kg/m3
1020 kPa, x2 = 0.8941 | 767.45 kg/m3 | –
2000 kPa, x2 = 0.1231 | – | 697.28 kg/m3
2000 kPa, x2 = 0.8941 | 768.33 kg/m3 | 759.05 kg/m3
2010 kPa, x2 = 0.2315 | – | 701.62 kg/m3
2010 kPa, x2 = 0.3229 | – | 705.65 kg/m3
2010 kPa, x2 = 0.4272 | – | 711.37 kg/m3
2010 kPa, x2 = 0.7021 | 743.17 kg/m3 | 733.6 kg/m3
3000 kPa, x2 = 0.7021 | 744.09 kg/m3 | –
3010 kPa, x2 = 0.2315 | – | 702.6 kg/m3
3010 kPa, x2 = 0.3229 | – | 706.63 kg/m3
3010 kPa, x2 = 0.4272 | – | 712.36 kg/m3
3010 kPa, x2 = 0.8941 | 769.22 kg/m3 | 760 kg/m3
3020 kPa, x2 = 0.1231 | – | 698.25 kg/m3
3020 kPa, x2 = 0.7021 | – | 734.56 kg/m3
4000 kPa, x2 = 0.2315 | – | 703.57 kg/m3
4000 kPa, x2 = 0.4272 | – | 713.31 kg/m3
4000 kPa, x2 = 0.8941 | – | 760.92 kg/m3
4010 kPa, x2 = 0.1231 | – | 699.22 kg/m3
4010 kPa, x2 = 0.3229 | – | 707.6 kg/m3
4010 kPa, x2 = 0.7021 | 745 kg/m3 | –
4010 kPa, x2 = 0.8941 | 770.09 kg/m3 | –
4020 kPa, x2 = 0.7021 | – | 735.53 kg/m3
5010 kPa, x2 = 0.1231 | – | 700.18 kg/m3
5010 kPa, x2 = 0.2315 | – | 704.52 kg/m3
5010 kPa, x2 = 0.4272 | – | 714.28 kg/m3
5010 kPa, x2 = 0.7021 | 745.89 kg/m3 | 736.47 kg/m3
5010 kPa, x2 = 0.8941 | 770.95 kg/m3 | 761.84 kg/m3
5020 kPa, x2 = 0.3229 | – | 708.55 kg/m3
6000 kPa, x2 = 0.3229 | 689.86 kg/m3 | –
6000 kPa, x2 = 0.8941 | 771.82 kg/m3 | –
6010 kPa, x2 = 0.1231 | – | 701.13 kg/m3
6010 kPa, x2 = 0.2315 | 670.36 kg/m3 | 705.46 kg/m3
6010 kPa, x2 = 0.3229 | – | 709.51 kg/m3
6010 kPa, x2 = 0.4272 | 717.03 kg/m3 | 715.23 kg/m3
6010 kPa, x2 = 0.7021 | – | 737.41 kg/m3
6010 kPa, x2 = 0.8941 | – | 762.78 kg/m3
6020 kPa, x2 = 0.1231 | 666.76 kg/m3 | –
6020 kPa, x2 = 0.7021 | 746.77 kg/m3 | –
7000 kPa, x2 = 0.1231 | 667.99 kg/m3 | –
7000 kPa, x2 = 0.3229 | 691.15 kg/m3 | –
7000 kPa, x2 = 0.8941 | 772.68 kg/m3 | 763.69 kg/m3
7010 kPa, x2 = 0.3229 | – | 710.46 kg/m3
7010 kPa, x2 = 0.7021 | 747.64 kg/m3 | –
7020 kPa, x2 = 0.1231 | – | 702.05 kg/m3
7020 kPa, x2 = 0.2315 | 671.62 kg/m3 | 706.4 kg/m3
7020 kPa, x2 = 0.4272 | 718.27 kg/m3 | 716.18 kg/m3
7020 kPa, x2 = 0.7021 | – | 738.36 kg/m3
8000 kPa, x2 = 0.1231 | 669.23 kg/m3 | –
8000 kPa, x2 = 0.3229 | 692.44 kg/m3 | –
8010 kPa, x2 = 0.3229 | – | 711.38 kg/m3
8010 kPa, x2 = 0.4272 | 719.48 kg/m3 | 717.13 kg/m3
8010 kPa, x2 = 0.7021 | 748.52 kg/m3 | 739.3 kg/m3
8010 kPa, x2 = 0.8941 | 773.53 kg/m3 | 764.6 kg/m3
8020 kPa, x2 = 0.1231 | – | 702.98 kg/m3
8020 kPa, x2 = 0.2315 | 672.88 kg/m3 | 707.34 kg/m3
9000 kPa, x2 = 0.1231 | 670.48 kg/m3 | –
9000 kPa, x2 = 0.2315 | – | 708.26 kg/m3
9000 kPa, x2 = 0.7021 | 749.39 kg/m3 | 740.23 kg/m3
9000 kPa, x2 = 0.8941 | 774.38 kg/m3 | –
9010 kPa, x2 = 0.1231 | – | 703.89 kg/m3
9010 kPa, x2 = 0.3229 | 693.71 kg/m3 | –
9010 kPa, x2 = 0.4272 | 720.71 kg/m3 | 718.05 kg/m3
9020 kPa, x2 = 0.2315 | 674.14 kg/m3 | –
9020 kPa, x2 = 0.3229 | – | 712.32 kg/m3
9020 kPa, x2 = 0.8941 | – | 765.49 kg/m3
10000 kPa, x2 = 0.1231 | – | 704.81 kg/m3
10000 kPa, x2 = 0.8941 | – | 766.39 kg/m3
10010 kPa, x2 = 0.2315 | 675.41 kg/m3 | –
10010 kPa, x2 = 0.3229 | – | 713.24 kg/m3
10010 kPa, x2 = 0.4272 | 721.93 kg/m3 | 718.99 kg/m3
10010 kPa, x2 = 0.7021 | 750.23 kg/m3 | 741.14 kg/m3
10020 kPa, x2 = 0.2315 | – | 709.17 kg/m3
10020 kPa, x2 = 0.8941 | 775.22 kg/m3 | –
11000 kPa, x2 = 0.3229 | – | 714.15 kg/m3
11000 kPa, x2 = 0.8941 | 776.04 kg/m3 | 767.27 kg/m3
11010 kPa, x2 = 0.1231 | 672.98 kg/m3 | 705.72 kg/m3
11010 kPa, x2 = 0.2315 | 676.62 kg/m3 | 710.07 kg/m3
11010 kPa, x2 = 0.4272 | 723.15 kg/m3 | 719.89 kg/m3
11010 kPa, x2 = 0.7021 | – | 742.04 kg/m3
11020 kPa, x2 = 0.3229 | 696.2 kg/m3 | –
11020 kPa, x2 = 0.7021 | 751.07 kg/m3 | –
12000 kPa, x2 = 0.1231 | 674.18 kg/m3 | –
12000 kPa, x2 = 0.3229 | 697.42 kg/m3 | –
12010 kPa, x2 = 0.2315 | 677.87 kg/m3 | –
12010 kPa, x2 = 0.3229 | – | 715.05 kg/m3
12010 kPa, x2 = 0.4272 | 724.32 kg/m3 | –
12010 kPa, x2 = 0.7021 | 751.91 kg/m3 | 742.93 kg/m3
12020 kPa, x2 = 0.8941 | 776.87 kg/m3 | –
13000 kPa, x2 = 0.2315 | 679.08 kg/m3 | –
13000 kPa, x2 = 0.4272 | 725.44 kg/m3 | –
13010 kPa, x2 = 0.1231 | 675.41 kg/m3 | –
13010 kPa, x2 = 0.3229 | 698.65 kg/m3 | –
13010 kPa, x2 = 0.8941 | 777.67 kg/m3 | –
13020 kPa, x2 = 0.7021 | 752.73 kg/m3 | –
14000 kPa, x2 = 0.1231 | 676.57 kg/m3 | –
14010 kPa, x2 = 0.2315 | 680.27 kg/m3 | –
14010 kPa, x2 = 0.3229 | 699.83 kg/m3 | –
14010 kPa, x2 = 0.4272 | 726.63 kg/m3 | –
14010 kPa, x2 = 0.8941 | 778.47 kg/m3 | –
14020 kPa, x2 = 0.7021 | 753.54 kg/m3 | –
15010 kPa, x2 = 0.1231 | 717.43 kg/m3 and 677.73 kg/m3 | –
15010 kPa, x2 = 0.2315 | 681.42 kg/m3 and 721.96 kg/m3 | –
15010 kPa, x2 = 0.3229 | 726.26 kg/m3 | –
15010 kPa, x2 = 0.4272 | 727.76 kg/m3 and 732.14 kg/m3 | –
15020 kPa, x2 = 0.3229 | 700.99 kg/m3 | –
15020 kPa, x2 = 0.7021 | 754.35 kg/m3 | –
15020 kPa, x2 = 0.8941 | 779.28 kg/m3 | –
16000 kPa, x2 = 0.8941 | 780.06 kg/m3 | –
16010 kPa, x2 = 0.2315 | 682.56 kg/m3 and 722.75 kg/m3 | –
16010 kPa, x2 = 0.7021 | 755.14 kg/m3 | –
16020 kPa, x2 = 0.1231 | 718.2 kg/m3 | –
16020 kPa, x2 = 0.3229 | 702.15 kg/m3 and 727.04 kg/m3 | –
16020 kPa, x2 = 0.4272 | 728.86 kg/m3 and 732.94 kg/m3 | –
17000 kPa, x2 = 0.4272 | 729.95 kg/m3 and 733.7 kg/m3 | –
17010 kPa, x2 = 0.1231 | 718.99 kg/m3 | –
17010 kPa, x2 = 0.2315 | 683.64 kg/m3 and 723.54 kg/m3 | –
17010 kPa, x2 = 0.3229 | 727.83 kg/m3 | –
17010 kPa, x2 = 0.7021 | 755.92 kg/m3 | –
17010 kPa, x2 = 0.8941 | 780.82 kg/m3 | –
17020 kPa, x2 = 0.1231 | 679.98 kg/m3 | –
17020 kPa, x2 = 0.3229 | 703.28 kg/m3 | –
18000 kPa, x2 = 0.7021 | 756.69 kg/m3 | –
18010 kPa, x2 = 0.1231 | 719.75 kg/m3 | –
18010 kPa, x2 = 0.2315 | 684.75 kg/m3 and 724.3 kg/m3 | –
18010 kPa, x2 = 0.3229 | 704.37 kg/m3 and 728.61 kg/m3 | –
18010 kPa, x2 = 0.4272 | 734.49 kg/m3 | –
18010 kPa, x2 = 0.8941 | 781.6 kg/m3 | –
18020 kPa, x2 = 0.1231 | 681.03 kg/m3 | –
18020 kPa, x2 = 0.4272 | 731.02 kg/m3 | –
19000 kPa, x2 = 0.2315 | 725.04 kg/m3 | –
19000 kPa, x2 = 0.3229 | 705.41 kg/m3 | –
19000 kPa, x2 = 0.7021 | 757.45 kg/m3 | –
19000 kPa, x2 = 0.8941 | 782.35 kg/m3 | –
19010 kPa, x2 = 0.1231 | 682.1 kg/m3 and 720.5 kg/m3 | –
19010 kPa, x2 = 0.2315 | 685.8 kg/m3 | –
19010 kPa, x2 = 0.4272 | 732.06 kg/m3 | –
19020 kPa, x2 = 0.3229 | 729.37 kg/m3 | –
19020 kPa, x2 = 0.4272 | 735.24 kg/m3 | –
20000 kPa, x2 = 0.1231 | 721.22 kg/m3 | –
20010 kPa, x2 = 0.1231 | 683.05 kg/m3 | –
20010 kPa, x2 = 0.2315 | 686.85 kg/m3 | –
20010 kPa, x2 = 0.4272 | 736 kg/m3 | –
20010 kPa, x2 = 0.7021 | 758.2 kg/m3 | –
20010 kPa, x2 = 0.8941 | 783.1 kg/m3 | –
20020 kPa, x2 = 0.2315 | 725.78 kg/m3 | –
20020 kPa, x2 = 0.3229 | 706.48 kg/m3 and 730.09 kg/m3 | –
20020 kPa, x2 = 0.4272 | 733.04 kg/m3 | –
